From US5244662A, “Medicinal extract from a mixture of Phellodendron and defatted seed of Croton, and method for it's manufacture” (Korea Green Cross Corporation, priority 1990, dated 1993)

Experiments:
osteoporosis = assay: Clinical trial in osteoporosis; type: in vivo, patient
Description: (G-1) Clinical trial on a severe case whose vertebral density was just 0.332 g/cm^2 (29% of normal value), that is, corresponding to the 10th year from each menopause and the inability to walk over ten minutes. […]

[1] = treatment of osteoporosis; cited from earlier work
granuloma cells = assay: Action on primary granuloma cells (progesterone production); type: cell-based, rats
Protocol: Current antitumour drugs affect normal cellular growth as well as growth of tumour cells, whereby very careful therapeutic application of the agents has been required. […] The action of the present extract on spleen cells and granuloma cells was investigated to evaluate the action on normal cellular growth.
The spleen cells originated from BALB/C mice and were cultured in RPMI media under the condition of 7% CO2 /37° C. The granuloma cells originated from the ovum of young rats aged 25 days and were cultured in DMEM/F 12(1:1) media containing fetal bovine serum under the same conditions.

PO-GRSI cells = assay: Steroid hormone synthesis of PO-GRSI; type: cell-based
Protocol: Granuloma cells play an important role in producing ovum in mammalian animals, and particularly secrete progesterone to enhance the proliferation of ovum. Granuloma cells metastasized artificially with carcinogenic genes (SV-40 and Ha-Ras) have the ability to synthesize both progesterone, the cell's original function and protein, and the original function of the carcinogenic gene. For the test, PO-GRSI and PA-GS6 were cultured in DMEM/F12(1:1) haematologic culture media containing insulin(2 μg/ml), transferin (5 μg/ml), hydrocortisone(40 μg/ml) and fibronectin(5 μg/ml), and the progesterone was analyzed by radioimmunoassay ([…]).
The antitumour activities of the extract obtained in Example 1 against Granuloma cells were determined also by evaluating its action on the progesterone and 20 alpha --OH-- progesterone synthesis of the captioned two kinds of cells. In the meantime, the action of FORSKOLIN to enhance the two steroid hormone syntheses were also checked.

L1210 (ATCC CCL 219) = test system: L1210 (ATCC CCL 219); set-up: species or system BDFI mice; conditions: mouse, in vivo
P388 (ATCC CCL 46) = test system: P388 (ATCC CCL 46); set-up: species or system BDFI mice; conditions: mouse, in vivo

For `CC#C[C@]1(O)CC[C@H]2[C@@H]3CCc4cc(O)ccc4[C@H]3CC[C@@]21C` [Estrogen], the vertebral density maintained (osteoporosis) was 0.341 g/cm^2.
For `[F-].[Na+]` [Sodium fluoride], the “adverse effects of nausea and gastric irritation” value [1] is listed as “About 30%” and the “rheumatic pain in leg joints” value [1] is listed as 10%.
In the case of `C=C[C@@]1(C)CC(=O)[C@]2(O)[C@@]3(C)[C@@H](O)CCC(C)(C)[C@@H]3[C@H](O)[C@H](OC(C)=O)[C@@]2(C)O1` [forskolin], the “progesterone secretion versus control” value (granuloma cells; forskolin) is reported as “eight times that of the control”, the “progesterone” value (granuloma cells; forskolin 10^-4 M, control 109.6) is reported as 829.0 ng/mL and the “increase of 20 alpha-OH-progesterone synthesis over the control” value (PO-GRSI cells) is reported as 100 times. The “increase of progesterone synthesis over the control” value (PO-GRSI cells) was 60 times.
In the case of `CO[C@@]12[C@H](COC(N)=O)C3=C(C(=O)C(C)=C(N)C3=O)N1C[C@@H]1N[C@@H]12` [mitomycin C], the “survival rate (%)” value (L1210 (ATCC CCL 219)) is reported as 135%, the “survival time” value (L1210 (ATCC CCL 219)) is reported as 21 days and the “survival rate (%)” value (P388 (ATCC CCL 46)) is reported as 130.4%. For the same molecule, the “survival time” value (P388 (ATCC CCL 46)) was 21.6 days.
